Laboratory results taken from BindingDB's records for doi:10.1021/jm0205043 (University of California, 2003).
pIC50: −log10 of the molar value.

Target: Cyclin-dependent kinase 2 (Homo sapiens, UniProt P24941)
Test: Inhibition of Cyclin-dependent kinase 2 (CDK2)

pIC50: 6.51
Structure (SMILES): CN1CCC(c2c(O)cc(O)c3c(O)c(Cc4ccc([N+](=O)[O-])cc4)oc23)CC1 [4,6-Dihydroxy-7-(1-methyl-piperidin-4-yl)-2-(4-nitro-benzylidene)-benzofuran-3-one]
